This passage reports IC50 results from US20250059171A1 (Hoffmann-La Roche Inc., priority 2021, published 2025).

One assay deals with SARS-CoV-2 3CLpro (Severe acute respiratory syndrome coronavirus 2, UniProt P0DTD1). As to the kind of experiment: biochemical.
A further assay concerns the target MERS-CoV 3CLpro (Middle East respiratory syndrome-related coronavirus, UniProt K9N7C7). In words: biochemical.
In a further assay the target is SARS-CoV 3CLpro (Severe acute respiratory syndrome coronavirus, UniProt P0C6X7). In words: biochemical.
The next assay has as its target HCoV-229E 3CLpro (Human coronavirus 229E, UniProt P0C6X1). In words: HCoV-229E 3CLpro inhibition assay (FRET). Type of assay: biochemical.

Chain of MERS-CoV 3CLpro (K9N7C7 3248-3553): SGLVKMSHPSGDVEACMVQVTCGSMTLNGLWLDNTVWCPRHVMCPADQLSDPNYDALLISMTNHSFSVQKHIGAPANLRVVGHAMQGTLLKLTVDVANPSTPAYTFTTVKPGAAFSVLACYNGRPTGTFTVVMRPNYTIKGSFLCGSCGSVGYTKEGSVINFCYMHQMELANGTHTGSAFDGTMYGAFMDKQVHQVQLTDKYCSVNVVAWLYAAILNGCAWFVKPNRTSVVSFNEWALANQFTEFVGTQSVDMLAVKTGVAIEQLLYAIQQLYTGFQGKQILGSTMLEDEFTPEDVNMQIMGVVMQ
Chain of HCoV-229E 3CLpro (P0C6X1 2966-3267): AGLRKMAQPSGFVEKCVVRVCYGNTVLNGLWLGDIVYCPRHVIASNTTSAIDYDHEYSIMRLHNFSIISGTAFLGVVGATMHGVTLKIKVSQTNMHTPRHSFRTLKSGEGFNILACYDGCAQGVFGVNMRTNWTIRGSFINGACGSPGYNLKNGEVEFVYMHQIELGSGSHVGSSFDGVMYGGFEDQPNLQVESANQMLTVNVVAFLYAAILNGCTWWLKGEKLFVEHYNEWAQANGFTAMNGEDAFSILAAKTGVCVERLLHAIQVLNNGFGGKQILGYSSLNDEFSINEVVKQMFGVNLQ

Consider `CC1(C)[C@@H]2[C@@H](C(=O)NN(C[C@@H]3CCNC3=O)C(=O)[C@H](F)Cl)N(C(=O)COc3cc(F)cc(F)c3)C[C@@H]21` [Example 17, (1R,2S,5S)—N′-[(2R)-2-chloro-2-fluoro-acetyl]-3-[2-(3,5-difluorophenoxy)acetyl]-6,6-dimethyl-N′—[[(3S)-2-oxopyrrolidin-3-yl]methyl]-3-azabicyclo[3.1.0]hexane-2-carbohydrazide], for which the IC50 against SARS-CoV-2 3CLpro amounted to 121 nM; at MERS-CoV 3CLpro it was 408 nM; against SARS-CoV 3CLpro it was 429 nM.

Regarding `CC(C)(C)[C@H](NC(=O)C(F)(F)F)C(=O)N1C[C@H]2[C@@H]([C@H]1C(=O)NN(C[C@@H]1CCNC1=O)C(=O)CCl)C2(C)C` [Example 18, N-[(1S)-1-[(1R,2S,5S)-2-[[(2-chloroacetyl)-[[(3S)-2-oxopyrrolidin-3-yl]methyl]amino]carbamoyl]-6,6-dimethyl-3-azabicyclo[3.1.0]hexane-3-carbonyl]-2,2-dimethyl-propyl]-2,2,2-trifluoro-acetamide], the IC50 at MERS-CoV 3CLpro was 408 nM; against SARS-CoV 3CLpro it was 429 nM.

Compound `CC1(C)[C@@H]2[C@@H](C(=O)NN(C[C@@H]3CCNC3=O)C(=O)[C@H](F)Cl)N(C(=O)[C@H](CC34CC(C3)C4)NC(=O)C(F)(F)F)C[C@@H]21` [Example 65, N-[(1S)-1-(1-bicyclo[1.1.1]pentanylmethyl)-2-[(1R,2S,5S)-2-[[[(2R)-2-chloro-2-fluoro-acetyl]-[[(3S)-2-oxopyrrolidin-3-yl]methyl]amino]carbamoyl]-6,6-dimethyl-3-azabicyclo[3.1.0]hexan-3-yl]-2-oxo-ethyl]-2,2,2-trifluoro-acetamide] returned an IC50 against HCoV-229E 3CLpro of 25 nM.

Consider `O=C1NCC[C@H]1CN(NC(=O)[C@@H]1[C@H]2CCC[C@H]2CN1C(=O)COc1cccc(F)c1)C(=O)[C@H](F)Cl` [Example 88a, (3S,3aS,6aR)—N′-[(2R)-2-chloro-2-fluoro-acetyl]-2-[2-(3-fluorophenoxy)acetyl]-N′—[[(3S)-2-oxopyrrolidin-3-yl]methyl]-3,3a,4,5,6,6a-hexahydro-1H-cyclopenta[c]pyrrole-3-carbohydrazide], for which the figures for the IC50 against SARS-CoV-2 3CLpro and at MERS-CoV 3CLpro were 42 nM and 249 nM, respectively.

For the compound `O=C1NCC[C@H]1CN(NC(=O)[C@H]1[C@@H]2CCC[C@@H]2CN1C(=O)COc1cccc(F)c1)C(=O)[C@H](F)Cl` [Example 88b, (3R,3aR,6aS)—N′-[(2R)-2-chloro-2-fluoro-acetyl]-2-[2-(3-fluorophenoxy)acetyl]-N′—[[(3S)-2-oxopyrrolidin-3-yl]methyl]-3,3a,4,5,6,6a-hexahydro-1H-cyclopenta[c]pyrrole-3-carbohydrazide], the IC50 is > 10000 nM at SARS-CoV-2 3CLpro and 155 nM on MERS-CoV 3CLpro.

For the compound `O=C1NCC[C@H]1CN(NC(=O)[C@@H]1[C@H]2CCC[C@H]2CN1C(=O)COc1cc(F)cc(F)c1)C(=O)[C@H](F)Cl` [Example 89a, (3S,3aS,6aR)—N′-[(2R)-2-chloro-2-fluoro-acetyl]-2-[2-(3,5-difluorophenoxy)acetyl]-N′—[[(3S)-2-oxopyrrolidin-3-yl]methyl]-3,3a,4,5,6,6a-hexahydro-1H-cyclopenta[c]pyrrole-3-carbohydrazide], the IC50 at SARS-CoV-2 3CLpro is 51 nM; at MERS-CoV 3CLpro, > 10000 nM.

Regarding `O=C1NCC[C@H]1CN(NC(=O)[C@H]1[C@@H]2CCC[C@@H]2CN1C(=O)COc1cc(F)cc(F)c1)C(=O)[C@H](F)Cl` [Example 89b, (3R,3aR,6aS)—N′-[(2R)-2-chloro-2-fluoro-acetyl]-2-[2-(3,5-difluorophenoxy)acetyl]-N′—[[(3S)-2-oxopyrrolidin-3-yl]methyl]-3,3a,4,5,6,6a-hexahydro-1H-cyclopenta[c]pyrrole-3-carbohydrazide], the IC50 against SARS-CoV-2 3CLpro is > 10000 nM; at MERS-CoV 3CLpro, 193 nM.

A word on the IC50: it is the concentration at which inhibition is half-maximal. A low value points to inhibition by little substance.
